{
  "source": "patent US5608084A",
  "about": "“Lactones with antioxidising and hypolipidaemic activity useful in the therapy of the atherosclerosis” (priority 1994, dated 1997)",
  "key": {"HepG2": {"tested_on": "HepG2", "assay": "Incorporation of 14C-acetate in the lipidic classes in HepG2 cells (hypolipidaemic activity)", "type": "cell-based, human", "details": "for Incorporation of 14C-acetate: Cholesterol / Incorporation of 14C-acetate: Esters of Cholesterol / Incorporation of 14C-acetate: Fatty acids / Incorporation of 14C-acetate: Phospholipids / Incorporation of 14C-acetate: Triglycerides: per culture plate; for inhibition at 1 µM / inhibition at 10 µM: Homo sapiens, HepG2", "protocol": "The hypolipidaemic activity of some lactones of general formula I has been evaluated in vitro by testing their influence on the synthesis of the cell lipids like cholesterol, fatty acids, triglycerides, phospholipids and esters of the cholesterol, described by Barnhard J. W. in Amer. J. Cardiol., 62, 52B-56B, (1988).\nThe synthesis of the lipids has been studied by incubating cells coming from a human hepatocarcinoma (HepG2-American Type Culture Collection) in presence of ^14 C-acetate (Amersham) and by measuring the incorporation of the radioactive precursor in the main lipidic classes by means of chromatographic separation on silica gel (Merck F254), according to the method described by Skipski V. P. et al. in Biochem. Biophys. Acta, 106, 386-396, (1965) and by means of scintillographic dosage with β-counter Beckman scintillator, according to the method reported by Gherardi E. and Calandra S. in Lipids, 15, 108-112, (1980).\nThe data reported in tables 4 and 5 refer to the incorporation of ^14 C-acetate in the various lipidic classes, expressed as radioactivity in count per minute (cpm) for culture plate, for some lactones, in comparison with the probucol and the gemfibrozil, used as positive controls and with the solvent ethanol, used as negative control.\nThe percents in brackets express the lowering of the ^14 C-acetate in the various lipidic classes referred to the control, i.e. to the physiological solution. […] The confluence cells have been exposed to the products tested for 24 hours; at the end of the incubation the monolayer has been solubilized and the optical density of the lysate at λ260 nm has been measured. The value of the absorbance is direct function of the amount of the macromolecules present and therefore indirectly of the number of the cells."}, "LDL": {"tested_on": "LDL", "details": "in vitro, LDL incubated with antioxidizer; cited from earlier work"}, "men and women": {"tested_on": "men and women", "details": "considerable amounts of Vitamin E; cited from earlier work"}},
  "note": "Read-outs that look alike come from different tables or passages of the source.",
  "data": [
    {"compound": "Cc1ccc(C)c(OCCCC(C)(C)C(=O)O)c1", "note": "[Gemfibrozil, reference compound]", "values": [
      {"measurement": "influence on the synthesis of the triglycerides", "setting": "HepG2", "result": "remarkable activity"},
      {"measurement": "Incorporation of 14C-acetate: Cholesterol", "setting": "HepG2; 1 μM", "result": 20820, "unit": "cpm"},
      {"measurement": "Incorporation of 14C-acetate: Esters of Cholesterol", "setting": "HepG2; 1 μM", "result": 968, "unit": "cpm"},
      {"measurement": "Incorporation of 14C-acetate: Fatty acids", "setting": "HepG2; 1 μM", "result": 299, "unit": "cpm"},
      {"measurement": "Incorporation of 14C-acetate: Phospholipids", "setting": "HepG2; 1 μM", "result": 132598, "unit": "cpm"},
      {"measurement": "Incorporation of 14C-acetate: Triglycerides", "setting": "HepG2; 1 μM", "result": 84593, "unit": "cpm"},
      {"measurement": "Incorporation of 14C-acetate: Cholesterol", "setting": "HepG2; 10 μM", "result": 25306, "unit": "cpm"},
      {"measurement": "Incorporation of 14C-acetate: Esters of Cholesterol", "setting": "HepG2; 10 μM", "result": 1156, "unit": "cpm"},
      {"measurement": "Incorporation of 14C-acetate: Fatty acids", "setting": "HepG2; 10 μM", "result": 376, "unit": "cpm"},
      {"measurement": "Incorporation of 14C-acetate: Phospholipids", "setting": "HepG2; 10 μM", "result": 164252, "unit": "cpm"},
      {"measurement": "Incorporation of 14C-acetate: Triglycerides", "setting": "HepG2; 10 μM", "result": 96533, "unit": "cpm"},
      {"measurement": "inhibition at 1 µM", "setting": "HepG2; 1 μM, read-out: Incorporation of 14C-acetate: Cholesterol, percent referred to physiological solution", "result": 34, "unit": "%"},
      {"measurement": "inhibition at 1 µM", "setting": "HepG2; 1 μM, read-out: Incorporation of 14C-acetate: Esters of Cholesterol, percent referred to physiological solution", "result": 76, "unit": "%"},
      {"measurement": "inhibition at 1 µM", "setting": "HepG2; 1 μM, read-out: Incorporation of 14C-acetate: Fatty acids, percent referred to physiological solution", "result": 55, "unit": "%"},
      {"measurement": "inhibition at 1 µM", "setting": "HepG2; 1 μM, read-out: Incorporation of 14C-acetate: Phospholipids, percent referred to physiological solution", "result": 47, "unit": "%"},
      {"measurement": "inhibition at 1 µM", "setting": "HepG2; 1 μM, read-out: Incorporation of 14C-acetate: Triglycerides, percent referred to physiological solution", "result": 22, "unit": "%"},
      {"measurement": "inhibition at 10 µM", "setting": "HepG2; 10 μM, read-out: Incorporation of 14C-acetate: Cholesterol, percent referred to physiological solution", "result": 20, "unit": "%"},
      {"measurement": "inhibition at 10 µM", "setting": "HepG2; 10 μM, read-out: Incorporation of 14C-acetate: Esters of Cholesterol, percent referred to physiological solution", "result": 71, "unit": "%"},
      {"measurement": "inhibition at 10 µM", "setting": "HepG2; 10 μM, read-out: Incorporation of 14C-acetate: Fatty acids, percent referred to physiological solution", "result": 44, "unit": "%"},
      {"measurement": "inhibition at 10 µM", "setting": "HepG2; 10 μM, read-out: Incorporation of 14C-acetate: Phospholipids, percent referred to physiological solution", "result": 34, "unit": "%"},
      {"measurement": "inhibition at 10 µM", "setting": "HepG2; 10 μM, read-out: Incorporation of 14C-acetate: Triglycerides, percent referred to physiological solution", "result": 11, "unit": "%"},
      {"measurement": "activity as regards the synthesis of the esters of the cholesterol", "setting": "HepG2; summary of Table 4", "result": "70-75%"}
    ]},
    {"compound": "Vitamin E", "values": [
      {"measurement": "atherogenic potentialities of the LDL", "setting": "LDL", "result": "remarkably lowered"},
      {"measurement": "risk of vascular pathologies", "setting": "men and women", "result": "lowering of the risk of vascular pathologies"}
    ]}
  ]
}
